Data from patent publication US12172975B2, “1H-indazole carboxamides as receptor-interacting protein kinase 1 inhibitors (RIPK1)” (BRISTOL-MYERS SQUIBB COMPANY, priority 2018, dated 2024).
Read-outs that look alike come from different tables or passages of the source.

Legend:
[1] = test system: MLKL phosphorylation in HT29-L23 human colorectal adenocarcinoma cells; experiment: MLKL Phosphorylation High-Content Assay; assay type: cell-based; settings: necroptosis induced with TNFα, SMAC mimetic and Z-VAD, 6 h, read-out: pMLKL (IC50)
Outline: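 HT29-L23 cells were induced to necroptosis with TNFα (35 ng/mL), SMAC mimetic (700 nM) and Z-VAD (140 nM) for 6 h at 37 °C. Phospho-MLKL (S358) immunofluorescence was imaged and quantified per cell; maximal inhibition set by Nec-1s (6.25 μM), and IC50/Ymax from 4-parameter logistic fit.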

[2] = molecular target: His-GST-TVMV-hRIPK1 (1-324) (Homo sapiens (Human), UniProt Q13546); experiment: biochemical
His-GST-TVMV-hRIPK1 (1-324), sequence (Q13546 1-324): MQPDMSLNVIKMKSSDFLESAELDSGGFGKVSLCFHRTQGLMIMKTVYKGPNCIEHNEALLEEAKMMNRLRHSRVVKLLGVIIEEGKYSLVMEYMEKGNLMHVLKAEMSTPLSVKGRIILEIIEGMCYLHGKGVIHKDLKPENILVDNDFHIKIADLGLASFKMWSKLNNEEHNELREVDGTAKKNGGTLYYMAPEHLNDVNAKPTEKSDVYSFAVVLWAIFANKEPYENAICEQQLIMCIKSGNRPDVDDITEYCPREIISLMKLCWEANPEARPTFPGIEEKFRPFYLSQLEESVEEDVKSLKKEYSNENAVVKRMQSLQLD
Experimental: A solution was prepared containing 0.2 nM Anti GST-Tb (Cisbio, 61GSTTLB), 90.6 nM probe and 1 nM His-GST-TVMV-hRIPK1 (1-324) in FRET Buffer (20 mM HEPES, 10 mM MgCl2, 0.015% Brij-35, 4 mM DTT, 0.05 mg/mL BSA). Using Formulatrix Tempest, the detection antibody/enzyme/probe solution (2 mL) was dispensed into wells of a 1536 plate (Black Low Binding Polystyrene 1536 Plate (Corning, 3724)) containing 10 nL of compounds of interest at appropriate concentration in DMSO. The plate was incubated at rt for 1 h. FRET was measured using the EnVision plate reader (Excitation: 340 nm, Emission: 520 nm/495 nM). Total signal (0% inhibition) was calculated from wells containing 10 nL DMSO only.

Row | Compound | IC50 [1] [nM] | IC50 [2] [nM] | IC50 ([1]; Homo sapiens) [nM]
1 | CCC(c1ccccc1)n1nnc(-c2cc(-c3ccc4c(C(=O)NC)n[nH]c4c3)cnc2OC)n1 (single isomer, unassigned) [Example 18-1, 6-(6-methoxy-5-(2-(l-phenylpropyl)-2H-tetrazol-5-yl)pyridin-3-yl)-N-methyl-1H-indazole-3-carboxamide] | 7.3 | 5.5 | 
2 | CCC(c1ccccc1)n1nnc(-c2cc(-c3ccc4c(C(=O)NC)n[nH]c4c3)cnc2OC)n1 (single isomer, unassigned) [Example 18-2, 6-(6-methoxy-5-(2-(l-phenylpropyl)-2H-tetrazol-5-yl)pyridin-3-yl)-N-methyl-1H-indazole-3-carboxamide] | 310 | 100 | 
3 | [2H]C([2H])([2H])NC(=O)c1n[nH]c2cc(-c3cnc(OC)c(-c4nnn(C(C)c5ccc(F)cc5)n4)c3)ccc12 (single isomer, unassigned) [Example 19-1, 6-(5-(2-(1-(4-fluorophenyl)ethyl)-2H-tetrazol-5-yl)-6-methoxypyridin-3-yl)-N-(methyl-d3)-1H-indazole-3-carboxamide] | 14 | 42 | 
4 | [2H]C([2H])([2H])NC(=O)c1n[nH]c2cc(-c3cnc(OC)c(-c4nnn(C(C)c5ccc(F)cc5)n4)c3)ccc12 (single isomer, unassigned) [Example 19-2, 6-(5-(2-(1-(4-fluorophenyl)ethyl)-2H-tetrazol-5-yl)-6-methoxypyridin-3-yl)-N-(methyl-d3)-1H-indazole-3-carboxamide] | 64 | 100 | 
5 | CNC(=O)c1n[nH]c2cc(-c3cnc(OC)c(C(=O)NC4CCCC(c5ccccc5)C4)c3)ccc12 (single isomer, unassigned) [Example 21-1, 6-{6-methoxy-5-[(3-phenylcyclohexyl)carbamoyl]pyridin-3-yl}-N-methyl-1H-indazole-3-carboxamide] | 8.3 | 3.5 | 
6 | CNC(=O)c1n[nH]c2cc(-c3cnc(OC)c(C(=O)NC4CCCC(c5ccccc5)C4)c3)ccc12 (single isomer, unassigned) [Example 21-2, 6-{6-methoxy-5-[(3-phenylcyclohexyl)carbamoyl]pyridin-3-yl}-N-methyl-1H-indazole-3-carboxamide] | 13 | 5.9 | 
7 | CNC(=O)c1n[nH]c2cc(-c3cnc(OC)c(C(=O)NC4CCCC(c5ccccc5)C4)c3)ccc12 (single isomer, unassigned) [Example 21-3, 6-{6-methoxy-5-[(3-phenylcyclohexyl)carbamoyl]pyridin-3-yl}-N-methyl-1H-indazole-3-carboxamide] | 8.1 | 22 | 
8 | CNC(=O)c1n[nH]c2cc(-c3cnc(OC)c(C(=O)NC4CCCC(c5ccccc5)C4)c3)ccc12 (single isomer, unassigned) [Example 21-4, 6-{6-methoxy-5-[(3-phenylcyclohexyl)carbamoyl]pyridin-3-yl}-N-methyl-1H-indazole-3-carboxamide] | 2 | 2 | 
9 | [2H]C([2H])([2H])N(C1CCC(NC(=O)c2n[nH]c3cc(-c4cnc(OC)c(C(=O)NCc5ccccc5OC(F)(F)F)c4)ccc23)CC1)C([2H])([2H])[2H] (centres unmarked) [Example 188, N-{4-[di(deutero)methylamino]-cyclohexyl}-6-[6-methoxy-5-({[2-(trifluoromethoxy)phenyl]-methyl}carbamoyl)pyridin-3-yl]-1H-indazole-3-carboxamide] |  | 23 | 130
10 | [2H]C([2H])([2H])Oc1ncc(-c2ccc3c(C(=O)NC([2H])([2H])C([2H])([2H])[2H])n[nH]c3c2)cc1C(=O)N[C@@H]1CN(C(=O)C2CC(F)(F)C2)C[C@@H]1F [Example 192, 6-(5-{[(3R,4S)-1-(3,3-difluorocyclo-butanecarbonyl)-4-fluoropyrrolidin-3-yl]carbamoyl}-6-(deutero)methoxy-pyridin-3-yl)-N-[(1,1,2,2,2-deutero)-ethyl]-1H-indazole-3-carboxamide] |  | 110 | 430
